For orientation: Ki means the dissociation constant of the complex between target and ligand, obtained from inhibition or displacement.

SMILES strings stand for the structures. Where a name gives a salt, the structure may show the parent alone.

In one assay the test system is mice. Briefly: Amphetamine-induced hyperactivity in mice. The settings on record: amphetamine 3 mg/kg s.c. It is filed as in vivo. The method, then: The experiments were carried out on 6 weeks old naive Swiss male mice (Experimental Medicine Center (OMD), Lublin, Poland), weighing 28–30 g. The cages with mice were located in air-conditioned rooms maintaining the ambient temperature within the range of 23–25 °C. The animals were provided with a natural 12 h day/night cycle, replicating the day and night mode. Each testing group was represented by 8–10 animals, depending on the research schedule. All experiments were conducted according to the National Institute of Health Guidelines for the Care and Use of Laboratory Animals (8th edition) and to the European Community Council Directive for the Care and Use of Laboratory Animals of 22 September 2010 (2010/63/EU) and were approved by the Local Ethical Committee (number of ethical approval: 147/2018).
Compound 17 (25, 50, 75 mg/kg) was suspended in 1% Tween 80 in saline solution and was administered intraperitoneally (i.p.) 60 min before the test. Diazepam (DZ, Relanium, Polfa, Poland) at a dose of 1 mg/kg was diluted in 0.9% saline containing 1% Tween 80 and was administered subcutaneously (s.c.), 60 min before the test. Imipramine hydrochloride (30 mg/kg, Sigma-Aldrich was administered intraperitoneally (i.p.) 60 min before the test. D-amphetamine sulfate (3 mg/kg; Sigma-Aldrich, USA) was given subcutaneously (s.c.). Prior to administration, the agent was dissolved in saline and injected 30 min before the test. Control animals received an (i.p.) or (s.c.) injection of a respective vehicle. All compounds were injected in a manner generally accepted in experimental pharmacology, in an amount of 10 mL/kg body weight.
The measurement of the spontaneous locomotor activity was carried out using the OptoVarimex 4 Auto-Track device (Columbus Instruments, Columbus, OH, USA). Tested animals are kept in cages for 30 min. Their activity was recorded as interruptions of the light beams after 10 and 30 min of the test, and it was calculated automatically as a traveled distance in cm (±SEM). To determine whether compound 17 has an influence on amphetamine-induced hyperactivity, each mouse received 17 (25, 50 and 75 mg/kg; i.p.) and amphetamine (3 mg/kg; s.c.) 30 min after injection of 17 or vehicle and then spontaneous locomotor activity was measured.
As to `C[C@H](N)Cc1ccccc1` [amphetamine, D-amphetamine sulfate, reference compound], the “effect on locomotor activity compared to the control group after 10 min” value is listed as “increased mice locomotor activity” and the “effect on locomotor activity compared to the control group after 30 min” value is “increased mice locomotor activity”.

For the next assay, the target named is T1, human D2S receptor (Homo sapiens, UniProt P14416).
T1 construct: expressed in transfected cells; host or cells: CHO-K1
T1 sequence (P14416 1-414 isoform P14416-2): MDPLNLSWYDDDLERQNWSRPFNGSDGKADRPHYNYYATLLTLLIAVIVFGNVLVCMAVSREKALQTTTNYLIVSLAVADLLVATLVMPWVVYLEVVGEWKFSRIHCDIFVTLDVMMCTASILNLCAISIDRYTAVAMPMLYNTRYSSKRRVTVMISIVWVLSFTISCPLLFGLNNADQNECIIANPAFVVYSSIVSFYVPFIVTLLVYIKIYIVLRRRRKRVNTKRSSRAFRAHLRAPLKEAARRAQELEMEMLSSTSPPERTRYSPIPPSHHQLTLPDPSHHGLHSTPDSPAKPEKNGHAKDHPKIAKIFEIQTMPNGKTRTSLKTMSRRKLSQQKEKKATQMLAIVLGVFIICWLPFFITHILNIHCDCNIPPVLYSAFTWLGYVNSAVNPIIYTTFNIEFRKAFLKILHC
Description: Competition radioligand binding at human D2 receptor ([3H]-Spiperone, CHO-K1 membranes). The conditions noted are these: D2 receptor affinity. The method, then: Experiments were carried out in membranes isolated from a CHO-K1 cell line stably overexpressing the cloned human D2S receptor.
Competition radioligand binding assays were performed on membranes isolated from cell lines stably expressing the cloned human receptors, which were either in-house or commercially available. […] Assays (250 μL assay final volume) were carried out in 96-well polypropylene plates in duplicate. In short, the suspension of appropriate membrane protein was incubated in an assay buffer with the addition of the corresponding radioligand, in the presence or absence of a tested compound or reference compound. […] After the incubation, the content of the test plates was transferred to 96 well plates with glass fiber filter GF/B or GF/C, previously pretreated with polyethyleneimine (PEI), and rapidly filtered with the use of vacuum, followed by rapid washing with cold (4 °C) wash buffer. After that, the filter plates were dried at 60 °C for 1 h. Then, 30 μL of liquid scintillation cocktail (UniverSol-ES, MP Biomedicals, Solon, OH, USA) was added to each well of the filter plates, and the radioactivity was measured in a MicroBeta^2 microplate scintillation counter (PerkinElmer, Madrid, Spain).
Competition binding curves were fitted to a one-site competition binding model (Fit Ki) with the use of Prism 7 software (GraphPad, San Diego, CA, USA). logKi (log of the equilibrium dissociation constant (Ki)) values were obtained after constraining the concentration of radioligand employed in the assay and its dissociation constant (KD) as determined in saturation radioligand binding assays.
For the compound `O=C(CCN1C(=O)CCOc2ccccc21)Nc1ccc(C(F)(F)F)cc1` [Compound 4, 3-(4-Oxo-3,4-dihydrobenzo[b][1,4]oxazepin-5(2H)-yl)-N-(4-(trifluoromethyl)phenyl)propanamide], the “decrease of activity compared to the initial compound (D2AAK2)” value turned out to be 10 fold.

Staying with this assay, now noted: mean ± SEM of 2–3 independent experiments in duplicate; read-out: huD2 Ki.
On to `O=C(CCN1C(=O)CCOc2ccccc21)Nc1ccc(C(F)(F)F)cc1` [Compound 4, 3-(4-Oxo-3,4-dihydrobenzo[b][1,4]oxazepin-5(2H)-yl)-N-(4-(trifluoromethyl)phenyl)propanamide], for which the Ki came out at 3.846 ± 0.035 µM.

The assay is the same for the next values; noted with them: read-out: huD2 % inh. at 10 µM.
Consider `O=C(CCN1C(=O)COc2ccccc21)Nc1ccc(C(F)(F)F)cc1` [Compound 1, 3-(3-Oxo-2,3-dihydro-4H-benzo[b][1,4]oxazin-4-yl)-N-(4-(trifluoromethyl)phenyl)propanamide], for which the inhibition at 10 µM came out at 35 ± 14%.
Same read-out and setting: with `O=C(CCn1c(=O)sc2ccccc21)Nc1ccc(C(F)(F)F)cc1` [Compound 2, 3-(2-Oxobenzo[d]thiazol-3(2H)-yl)-N-(4-(trifluoromethyl)phenyl)propanamide] the figure was 11 ± 5%; with `O=C(CCn1c(=O)oc2ccccc21)Nc1ccc(C(F)(F)F)cc1` [Compound 3, 3-(2-Oxobenzo[d]oxazol-3(2H)-yl)-N-(4-(trifluoromethyl)phenyl)propanamide], 8 ± 8%.
Still for that read-out and setting: the figure for `O=C(CCN1CCSCC1=O)Nc1ccc(C(F)(F)F)cc1` [Compound 5, 3-(3-Oxothiomorpholino)-N-(4-(trifluoromethyl)phenyl)propanamide] is 14 ± 10%; for `O=C(CCN1CCCCC1=O)Nc1ccc(C(F)(F)F)cc1` [Compound 6, 3-(2-Oxopiperidin-1-yl)-N-(4-(trifluoromethyl)phenyl)propanamide] it is 14 ± 11%; for `Cc1ccccc1S(=O)(=O)NCCC(=O)Nc1ccc(C(F)(F)F)cc1` [Compound 7, 3-((2-Methylphenyl)sulfonamido)-N-(4-(trifluoromethyl)phenyl)propanamide] it is 13 ± 13%.
Still for that read-out and setting: the figure for `Cc1ccc(S(=O)(=O)NCCC(=O)Nc2ccc(C(F)(F)F)cc2)cc1` [Compound 8, 3-((4-Methylphenyl)sulfonamido)-N-(4-(trifluoromethyl)phenyl)propanamide] is 8 ± 7%; for `O=C(CN1C(=O)CSc2ccccc21)Nc1ccc(C(F)(F)F)cc1` [Compound 9, 2-(3-Oxo-2,3-dihydro-4H-benzo[b][1,4]thiazin-4-yl)-N-(4-(trifluoromethyl)phenyl)acetamide] it is 8 ± 8%; for `O=C(CCN1C(=O)CSc2ccccc21)Nc1ccccc1` [Compound 10, 3-(3-Oxo-2,3-dihydro-4H-benzo[b][1,4]thiazin-4-yl)-N-phenylpropanamide] it is 39 ± 4%.
For `O=C(CCN1C(=O)CSc2ccccc21)Nc1ccccc1C(F)(F)F` [Compound 11, 3-(3-Oxo-2,3-dihydro-4H-benzo[b][1,4]thiazin-4-yl)-N-(2-(trifluoromethyl)phenyl)propanamide], the inhibition at 10 µM came to 9 ± 1%.
Consider `Cc1ccccc1NC(=O)CCN1C(=O)CSc2ccccc21` [Compound 12, 3-(3-Oxo-2,3-dihydro-4H-benzo[b][1,4]thiazin-4-yl)-N-(o-tolyl)propanamide], for which the inhibition at 10 µM was determined as 10%.
The same measure, in the same setting: with `Cc1cccc(NC(=O)CCN2C(=O)CSc3ccccc32)c1` [Compound 13, 3-(3-Oxo-2,3-dihydro-4H-benzo[b][1,4]thiazin-4-yl)-N-(m-tolyl)propanamide] the figure was 32 ± 4%.
Same read-out and setting: with `O=C(CCN1C(=O)CSc2ccccc21)Nc1ccccc1Cl` [Compound 15, N-(2-Chlorophenyl)-3-(3-oxo-2,3-dihydro-4H-benzo[b][1,4]thiazin-4-yl)propanamide] the figure was 9 ± 3%; with `O=C(CCN1C(=O)CSc2ccccc21)Nc1cccc(Cl)c1` [Compound 16, N-(3-Chlorophenyl)-3-(3-oxo-2,3-dihydro-4H-benzo[b][1,4]thiazin-4-yl)propanamide], 42 ± 8%; with `COc1ccccc1NC(=O)CCN1C(=O)CSc2ccccc21` [Compound 18, N-(2-Methoxyphenyl)-3-(3-oxo-2,3-dihydro-4H-benzo[b][1,4]thiazin-4-yl)propanamide], 6%.
On the same count and under the same terms, the figure for `COc1cccc(NC(=O)CCN2C(=O)CSc3ccccc32)c1` [Compound 19, N-(3-Methoxyphenyl)-3-(3-oxo-2,3-dihydro-4H-benzo[b][1,4]thiazin-4-yl)propanamide] is 10 ± 4%.
As to `COc1ccc(NC(=O)CCN2C(=O)CSc3ccccc32)cc1` [Compound 20, N-(4-Methoxyphenyl)-3-(3-oxo-2,3-dihydro-4H-benzo[b][1,4]thiazin-4-yl)propanamide], the inhibition at 10 µM was found to be 47 ± 1%.
Take `O=C(CCN1C(=O)CSc2ccccc21)Nc1ccccc1[N+](=O)[O-]` [Compound 21, N-(2-Nitrophenyl)-3-(3-oxo-2,3-dihydro-4H-benzo[b][1,4]thiazin-4-yl)propanamide]: the inhibition at 10 µM stood at 5 ± 3%.
The same measure, in the same setting: with `O=C(CCN1C(=O)CSc2ccccc21)Nc1cccc([N+](=O)[O-])c1` [Compound 22, N-(3-Nitrophenyl)-3-(3-oxo-2,3-dihydro-4H-benzo[b][1,4]thiazin-4-yl)propanamide] the figure was 27 ± 2%.

In a further assay the test system is mice. Description: Forced swim test (FST). It is filed as in vivo. The conditions noted are these: imipramine 30 mg/kg i.p., 60 min before the test; p < 0.001. The method, then:
The experiments were carried out on 6 weeks old naive Swiss male mice (Experimental Medicine Center (OMD), Lublin, Poland), weighing 28–30 g. The cages with mice were located in air-conditioned rooms maintaining the ambient temperature within the range of 23–25 °C. The animals were provided with a natural 12 h day/night cycle, replicating the day and night mode. Each testing group was represented by 8–10 animals, depending on the research schedule. All experiments were conducted according to the National Institute of Health Guidelines for the Care and Use of Laboratory Animals (8th edition) and to the European Community Council Directive for the Care and Use of Laboratory Animals of 22 September 2010 (2010/63/EU) and were approved by the Local Ethical Committee (number of ethical approval: 147/2018). Compound 17 (25, 50, 75 mg/kg) was suspended in 1% Tween 80 in saline solution and was administered intraperitoneally (i.p.) 60 min before the test. […] Imipramine hydrochloride (30 mg/kg, Sigma-Aldrich was administered intraperitoneally (i.p.) 60 min before the test. […] Sigma-Aldrich, USA) was given subcutaneously (s.c.). Prior to administration, the agent was dissolved in saline and injected 30 min before the test. Control animals received an (i.p.) or (s.c.) injection of a respective vehicle. All compounds were injected in a manner generally accepted in experimental pharmacology, in an amount of 10 mL/kg body weight. Forced Swim Test was carried out according to the method of Porsolt et al.. It is a standard behavioral test, called the resignation test, which is used to determine the effectiveness of antidepressant drugs in laboratory rodents. Each mouse was placed individually for 6 min into a glass cylinder (height 25 cm, diameter 10 cm) with 15 cm of water at 23–25 °C. After the first 2 min of the test, the total duration of immobility (in seconds) was measured. An animal was judged to be immobile when it ceased struggling and remained floating motionless and making only movements allowing it to keep the head just above the surface of the water.
With `CN(C)CCCN1c2ccccc2CCc2ccccc21` [imipramine, Imipramine hydrochloride, reference compound], the “effect on immobility time” value is “statistically significant decrease”.

For the origin of these results see paper PMC10223470 (Molecules, 2023).
